IC50 data for 19 compounds are collected here from patent US20210070748A1, “INHIBITORS OF BRUTONS TYROSINE KINASE” (Pharmacyclics LLC, priority 2015, published 2021).

Broadly, the IC50 is the point on the concentration scale where inhibition reaches its midpoint.

What all share (format): biochemical
The target of assay [1] is T1, BTK-WT (Homo sapiens, UniProt Q06187).
T1 construct: purified from insect cells as a full-length construct containing an N-terminal 6X-His tag; His6 (N); made in house; host or cells: insect cells (baculovirus Sf21 in Method B)
The experiment in a line: Btk in vitro inhibitory activity (one of Method A TR-FRET, Method B electrophoretic mobility shift, Method C radiometric filter binding). To be noted: read-out: IC50 BTK-WT. (In EMSA bound probe runs differently from free probe, usually more slowly.)

Assay [2] addresses SRC (Homo sapiens, UniProt P12931). The experiment in a line: Inhibition of a panel of kinases, in vitro HotSpot kinase assay: SRC. The method, then: (§1) The degree of inhibition of a panel of kinases is determined using the in vitro HotSpot kinase assay (purified enzymes, ^33P-ATP, an appropriate substrate and 1 μM ATP).
Assay [3] addresses T2, TEC (Homo sapiens, UniProt P42680).
T2 sequence (P42680 1-631): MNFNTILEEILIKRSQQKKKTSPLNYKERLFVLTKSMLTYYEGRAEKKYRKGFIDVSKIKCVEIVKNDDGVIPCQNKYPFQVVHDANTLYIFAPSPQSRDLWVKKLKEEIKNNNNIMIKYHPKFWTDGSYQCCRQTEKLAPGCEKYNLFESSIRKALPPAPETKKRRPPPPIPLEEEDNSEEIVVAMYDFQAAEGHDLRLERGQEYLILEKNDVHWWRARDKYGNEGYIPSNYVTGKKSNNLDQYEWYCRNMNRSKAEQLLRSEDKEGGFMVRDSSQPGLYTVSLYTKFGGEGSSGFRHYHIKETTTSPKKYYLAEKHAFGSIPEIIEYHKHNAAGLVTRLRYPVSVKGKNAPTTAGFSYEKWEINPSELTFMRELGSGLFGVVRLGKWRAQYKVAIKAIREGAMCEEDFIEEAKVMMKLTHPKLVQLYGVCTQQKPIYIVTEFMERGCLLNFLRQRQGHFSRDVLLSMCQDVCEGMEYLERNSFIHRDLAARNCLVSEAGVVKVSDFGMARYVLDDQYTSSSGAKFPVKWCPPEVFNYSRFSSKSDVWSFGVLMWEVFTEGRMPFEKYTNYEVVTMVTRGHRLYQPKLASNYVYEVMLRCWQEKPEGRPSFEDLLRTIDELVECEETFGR
Nature of the assay: Inhibition of a panel of kinases, in vitro HotSpot kinase assay: TEC. Here is the method: as §1

[4] abbreviates: D-compounds panel data, 1 μM ATP.

SMILES strings stand for the structures. Like-named read-outs stand apart in the source and are kept apart here.

SRC, sequence (P12931 whole entry): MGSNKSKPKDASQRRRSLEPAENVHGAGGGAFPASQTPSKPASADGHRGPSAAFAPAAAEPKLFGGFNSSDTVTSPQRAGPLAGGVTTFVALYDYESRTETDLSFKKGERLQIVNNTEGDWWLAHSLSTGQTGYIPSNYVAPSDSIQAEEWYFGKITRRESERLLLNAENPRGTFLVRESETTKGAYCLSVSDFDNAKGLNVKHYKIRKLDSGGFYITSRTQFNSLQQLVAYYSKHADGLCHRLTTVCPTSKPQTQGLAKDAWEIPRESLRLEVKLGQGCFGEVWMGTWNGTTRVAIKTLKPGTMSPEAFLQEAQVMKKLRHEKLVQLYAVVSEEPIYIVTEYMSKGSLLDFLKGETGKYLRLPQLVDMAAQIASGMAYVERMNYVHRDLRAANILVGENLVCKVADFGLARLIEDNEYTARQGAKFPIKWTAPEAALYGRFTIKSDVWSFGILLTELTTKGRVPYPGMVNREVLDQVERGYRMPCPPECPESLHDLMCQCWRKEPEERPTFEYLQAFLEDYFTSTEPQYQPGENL
T1 sequence (Q06187 whole entry): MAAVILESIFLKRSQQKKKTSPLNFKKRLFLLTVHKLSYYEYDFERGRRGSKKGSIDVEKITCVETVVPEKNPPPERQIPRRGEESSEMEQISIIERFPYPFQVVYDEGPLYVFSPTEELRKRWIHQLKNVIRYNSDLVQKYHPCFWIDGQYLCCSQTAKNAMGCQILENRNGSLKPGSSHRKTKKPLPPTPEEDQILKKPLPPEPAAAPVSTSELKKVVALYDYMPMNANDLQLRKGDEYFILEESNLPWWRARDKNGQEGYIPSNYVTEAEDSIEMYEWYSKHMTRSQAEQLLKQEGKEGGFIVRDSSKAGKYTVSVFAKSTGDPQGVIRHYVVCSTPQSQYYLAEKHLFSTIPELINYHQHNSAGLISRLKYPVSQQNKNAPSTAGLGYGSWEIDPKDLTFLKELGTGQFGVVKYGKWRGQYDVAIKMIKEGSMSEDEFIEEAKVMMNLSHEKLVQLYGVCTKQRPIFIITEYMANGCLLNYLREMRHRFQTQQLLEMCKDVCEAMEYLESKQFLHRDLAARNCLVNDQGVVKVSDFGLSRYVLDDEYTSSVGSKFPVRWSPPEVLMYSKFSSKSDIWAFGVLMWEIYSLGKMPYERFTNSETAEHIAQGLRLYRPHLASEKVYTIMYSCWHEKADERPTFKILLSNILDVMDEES

Take `C[C@H]1C[C@H](NC(=O)c2ccc(C3CC3)cc2)CN(c2cnc(C(N)=O)c(Nc3cnn(C)c3)n2)C1` [Example D-34, 5-[(3S,5S)-3-(4-cyclopropylbenzamido)-5-methylpiperidin-1-yl]-3-[(1-methyl-1H-pyrazol-4-yl)amino]pyrazine-2-carboxamide]: the IC50 is 1 to 10 µM in assay [1] (D-compounds panel data), over 10 µM in assay [2] (setting [4]) and 1 to 10 µM in assay [3] (setting [4]).
With `CC(C)n1ccc(C(=O)N[C@@H]2CCCN(c3cnc(C(N)=O)c(Nc4cnn(C)c4)n3)[C@@H]2C)cc1=O` [Example D-35, 3-[(1-methyl-1H-pyrazol-4-yl)amino]-5-[(2R,3R)-2-methyl-3-[2-oxo-1-(propan-2-yl)-1,2-dihydropyridine-4-amido]piperidin-1-yl]pyrazine-2-carboxamide], the values for the IC50 in assay [1] (D-compounds panel data), in assay [2] (setting [4]) and in assay [3] (setting [4]) were at most 0.01 µM, 0.01 to 0.1 µM and 0.01 to 0.1 µM, respectively.
As for `Cc1cc(Nc2nc(N3C[C@H](NC(=O)N(C)C)CC[C@H]3C)cnc2C(N)=O)sn1` [Example D-77, 5-[(2R,5R)-5-[(dimethylcarbamoyl)amino]-2-methylpiperidin-1-yl]-3-[(3-methyl-1,2-thiazol-5-yl)amino]pyrazine-2-carboxamide], the IC50 in assay [1] (D-compounds panel data) was in the range of 0.1 to 1 µM; in assay [2] (setting [4]) it was 1 to 10 µM; in assay [3] (setting [4]) it was 1 to 10 µM.
Take `Cn1cc(Nc2nc(N3C[C@H](CO)C[C@H](NC(=O)c4ccc(C5CC5)cc4)C3)cnc2C(N)=O)cn1` (racemic) [Example D-43, (racemic)-cis-5-[3-(4-cyclopropylbenzamido)-5-(hydroxymethyl)piperidin-1-yl]-3-[(1-methyl-1H-pyrazol-4-yl)amino]pyrazine-2-carboxamide]: the half-inhibitory concentration (IC50) in assay [1] (D-compounds panel data) was at most 0.01 µM; in assay [2] (setting [4]) it was 0.1 to 1 µM; in assay [3] (setting [4]) it was 0.01 to 0.1 µM.
Taken in the same sequence, the figures for `CN(C)C(=O)N[C@H]1CCCN(c2cnc(C(N)=O)c(Nc3ccc(C4(C)CCN(C5CCCC5)CC4)cc3)n2)[C@H]1CO` [Example D-59, 3-{[4-(1-cyclopentyl-4-methylpiperidin-4-yl)phenyl]amino}-5-[(2R,3S)-3-[(dimethylcarbamoyl)amino]-2-(hydroxymethyl)piperidin-1-yl]pyrazine-2-carboxamide] were 0.1 to 1 µM, 1 to 10 µM and over 10 µM.
The matching figures for `C[C@@H]1[C@H](NC(=O)c2cnn(C(C)(C)C)c2)CCCN1c1cnc(C(N)=O)c(Nc2cnn(C)c2)n1` [Example D-57, 5-[(2R,3R)-3-(1-tert-butyl-1H-pyrazole-4-amido)-2-methylpiperidin-1-yl]-3-[(1-methyl-1H-pyrazol-4-yl)amino]pyrazine-2-carboxamide]: at most 0.01 µM, 0.01 to 0.1 µM and 0.01 to 0.1 µM.
`C=CC(=O)N1CC[C@@H](N(C)c2cnc(C(N)=O)c(Nc3ccc(C4(C)CCN(C5CCCC5)CC4)cc3)n2)C1` [Example E-106, (R)-5-((1-acryloylpyrrolidin-3-yl)(methyl)amino)-3-(4-(1-cyclopentyl-4-methylpiperidin-4-yl)phenylamino)pyrazine-2-carboxamide]: the IC50 was at most 0.01 µM in assay [1] (E compounds, Table 17); at most 0.01 µM in assay [2] (E compounds, Table 17); at most 0.01 µM in assay [3] (E compounds, Table 17).
Regarding `Cn1cc(Nc2nc(N3CCC[C@@H]4[C@H]3CCN4C(=O)c3ccc(C4CC4)cc3)cnc2C(N)=O)cn1` [Example D-44, 5-[(3aR,7aR)-1-(4-cyclopropylbenzoyl)-octahydro-1H-pyrrolo[3,2-b]pyridin-4-yl]-3-[(1-methyl-1H-pyrazol-4-yl)amino]pyrazine-2-carboxamide], the concentration for half-maximal inhibition (IC50) in assay [1] (D-compounds panel data) lay within 0.01 to 0.1 µM; in assay [2] (setting [4]) it was 1 to 10 µM; in assay [3] (setting [4]), 0.1 to 1 µM.
Taken in the same sequence, the figures for `Cn1cc(Nc2nc(N3CCC[C@H]4[C@@H]3CCN4C(=O)c3ccc(C4CC4)cc3)cnc2C(N)=O)cn1` [Example D-45, 5-[(3aS,7aS)-1-(4-cyclopropylbenzoyl)-octahydro-1H-pyrrolo[3,2-b]pyridin-4-yl]-3-[(1-methyl-1H-pyrazol-4-yl)amino]pyrazine-2-carboxamide] were 0.01 to 0.1 µM, 1 to 10 µM and 0.1 to 1 µM.
On to `C[C@@H]1[C@H](NC(=O)c2ccc(C3CC3)cc2F)CCCN1c1cnc(C(N)=O)c(Nc2ccc(C3(C)CCN(C4CCCC4)CC3)cc2)n1` [Example D-66, 3-{[4-(1-cyclopentyl-4-methylpiperidin-4-yl)phenyl]amino}-5-[(2R,3R)-3-(4-cyclopropyl-2-fluorobenzamido)-2-methylpiperidin-1-yl]pyrazine-2-carboxamide], for which the concentration for half-maximal inhibition (IC50) in assay [1] (D-compounds panel data), in assay [2] (setting [4]) and in assay [3] (setting [4]) was at most 0.01 µM throughout.
For the compound `C[C@@H]1C[C@@H](NC(=O)c2ccc(C3CC3)cc2)CN(c2cnc(C(N)=O)c(Nc3cnn(C)c3)n2)C1` [Example D-31, 5-[(3R,5R)-3-(4-cyclopropylbenzamido)-5-methylpiperidin-1-yl]-3-[(1-methyl-1H-pyrazol-4-yl)amino]pyrazine-2-carboxamide], the results for the half-maximal inhibitory concentration (IC50) in assay [1] (D-compounds panel data), in assay [2] (setting [4]) and in assay [3] (setting [4]) were 0.01 to 0.1 µM, 0.1 to 1 µM and 0.1 to 1 µM, respectively.
For `C[C@@H]1[C@H](NC(=O)c2ccc(C3CC3)cc2)CCCN1c1cnc(C(N)=O)c(Nc2ccc(N3CCC(C(=O)N(C)C)CC3)cc2)n1` [Example D-320, 5-[(2R,3R)-3-(4-cyclopropylbenzamido)-2-methylpiperidin-1-yl]-3-({4-[4-(dimethylcarbamoyl)piperidin-1-yl]phenyl}amino)pyrazine-2-carboxamide], the results for the concentration for half-maximal inhibition (IC50) in assay [1] (D-compounds panel data), in assay [2] (setting [4]) and in assay [3] (setting [4]) were at most 0.01 µM, 0.01 to 0.1 µM and at most 0.01 µM, respectively.
Take `CN(C)C(=O)N[C@@H]1CCCN(c2cnc(C(N)=O)c(Nc3ccc(C4(C)CCN(C5CCCC5)CC4)cc3)n2)[C@@H]1CO` [Example D-58, 3-{[4-(1-cyclopentyl-4-methylpiperidin-4-yl)phenyl]amino}-5-[(2S,3R)-3-[(dimethylcarbamoyl)amino]-2-(hydroxymethyl)piperidin-1-yl]pyrazine-2-carboxamide]: the 50% inhibitory concentration (IC50) in assay [1] (D-compounds panel data) was at most 0.01 µM; in assay [2] (setting [4]), 0.1 to 1 µM; in assay [3] (setting [4]), 0.1 to 1 µM.
Regarding `C[C@@H]1[C@H](NC(=O)c2ccc(C(C)(C)O)nc2)CCCN1c1nnc(C(N)=O)c(Nc2cnn(C)c2)n1` [Example D-41, 3-[(2R,3R)-3-[6-(2-hydroxypropan-2-yl)pyridine-3-amido]-2-methylpiperidin-1-yl]-5-[(1-methyl-1H-pyrazol-4-yl)amino]-1,2,4-triazine-6-carboxamide], the IC50 in assay [1] (D-compounds panel data) is at most 0.01 µM; in assay [2] (setting [4]), 0.01 to 0.1 µM; in assay [3] (setting [4]) it was 0.01 to 0.1 µM.
On to `Cn1cc(Nc2nc(N3CCC[C@@H]4[C@H]3CCCN4C(=O)c3ccc(C4CC4)cc3)cnc2C(N)=O)cn1` [Example D-46, 5-I[(4aR,8aR)-5-(4-cyclopropylbenzoyl)-decahydro-1,5-naphthyridin-1-yl]-3-[(1-methyl-1H-pyrazol-4-yl)amino]pyrazine-2-carboxamide], for which the half-maximal inhibitory concentration (IC50) fell in the range of 0.01 to 0.1 µM in assay [1] (D-compounds panel data), 0.1 to 1 µM in assay [2] (setting [4]) and 0.01 to 0.1 µM in assay [3] (setting [4]).
For the compound `Cn1cc(Nc2nc(N3CCC[C@@H]4[C@H]3CCN4C(=O)c3ccccc3)cnc2C(N)=O)cn1` (racemic) [Example D-54, (racemic)-cis-5-{1-benzoyl-octahydro-1H-pyrrolo[3,2-b]pyridin-4-yl}-3-[(1-methyl-1H-pyrazol-4-yl)amino]pyrazine-2-carboxamide], the IC50 was 0.01 to 0.1 µM in assay [1] (D-compounds panel data), 0.1 to 1 µM in assay [2] (setting [4]) and 0.1 to 1 µM in assay [3] (setting [4]).
On to `C[C@@H]1[C@H](NC(=O)N(C)C)CCCN1c1cnc(C(N)=O)c(Nc2ccc(N3CCN(C)CC3)cc2F)n1` [Example D-52, 5-[(2R,3R)-3-[(dimethylcarbamoyl)amino]-2-methylpiperidin-1-yl]-3-{[2-fluoro-4-(4-methylpiperazin-1-yl)phenyl]amino}pyrazine-2-carboxamide], for which the results for the IC50 in assay [1] (D-compounds panel data), in assay [2] (setting [4]) and in assay [3] (setting [4]) were 0.01 to 0.1 µM, 0.1 to 1 µM and 0.1 to 1 µM, respectively.
For `C[C@@H]1[C@H](NC(=O)c2ccc(C3CC3)nc2)CCCN1c1cnc(C(N)=O)c(Nc2ccc(OC3CCC(F)(F)CC3)cc2)n1` [Example D-48, 5-[(2R,3R)-3-(6-cyclopropylpyridine-3-amido)-2-methylpiperidin-1-yl]-3-({4-[(4,4-difluorocyclohexyl)oxy]phenyl}amino)pyrazine-2-carboxamide], the half-maximal inhibitory concentration (IC50) lay in the range of 0.01 to 0.1 µM in assay [1] (D-compounds panel data), 0.1 to 1 µM in assay [2] (setting [4]) and 0.01 to 0.1 µM in assay [3] (setting [4]).
`Cc1csc(Nc2nc(N3CCC[C@@H](NC(=O)c4ccc(C5CC5)cc4F)[C@H]3C)cnc2C(N)=O)n1` [Example D-63, 5-[(2R,3R)-3-(4-cyclopropyl-2-fluorobenzamido)-2-methylpiperidin-1-yl]-3-[(4-methyl-1,3-thiazol-2-yl)amino]pyrazine-2-carboxamide]: the IC50 in assay [1] (D-compounds panel data) was 1 to 10 µM; in assay [2] (setting [4]) it was over 10 µM; in assay [3] (setting [4]), over 10 µM.
